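Compound exposure: 48 hours, 5 concentrations, 96-well plates. GI50 marks 50% less growth. TGI denotes the concentration required for complete inhibition of growth.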

One assay has as its system KM12 colon. As to the kind of experiment: DTP human tumour cell line panel, 48 h.
As a reminder, the GI50 is the concentration giving 50% growth inhibition. The term TGI denotes the concentration giving total growth inhibition. A high value points to less potent growth arrest. With `CC1=C2[C@@H](CC1)[C@]1(C)O[C@@](c3ccccc3)(C[C@H]1OC(=O)CO)[C@H]2OC(=O)/C=C/c1ccccc1`, the GI50 was 14.8 µM and the TGI amounted to 34.7 µM.
In the case of `CCCN(CCS(C)(=O)=O)Cc1ccc(-c2ccc3ncnc(Nc4ccc(OCc5cccc(F)c5)c(Cl)c4)c3c2)o1`, the GI50 was more than 25 µM and the total growth inhibition concentration (TGI) is more than 25 µM.
Take `CCc1ccc2c(c1)N(CCO)C1=C(C(=O)OC1)C2c1cccc(Br)c1` (stereo not given): the concentration for 50% growth inhibition (GI50) was 0.336 µM and the TGI worked out at 12.5 µM.
The corresponding values for `CO/N=C(\COc1ccc2c(c1)[nH]c1ccccc12)c1ccc(F)cc1` are more than 100 µM and more than 100 µM.
Turning to `COc1ccc(-c2nc(Nc3cc(C)[nH]n3)c3ccccc3n2)cc1`, the concentration for 50% growth inhibition (GI50) was 0.0994 µM and the TGI was 29.1 µM.
On the same counts, the results for `O=c1[nH]c(=O)n(C2CC(O)C(COP(=O)(OCc3ccc([N+](=O)[O-])o3)N(CCCCCl)CC(O)CO)O2)cc1F` (stereo not given) are 1.87 µM and more than 100 µM.
`O=C1OC(=O)C(=C\c2ccc3c(c2)OCO3)/C1=C/c1ccc2c(c1)OCO2`: the TGI is more than 100 µM.
As for `CC(C)NCCCn1c(Sc2cc3c(cc2I)OCO3)nc2c(N)ncnc21`, the concentration for 50% growth inhibition (GI50) was 0.0592 µM and the TGI came out at 0.755 µM.
As to `O=C(/C=C\c1cccc([N+](=O)[O-])c1)/C=C/c1cccc([N+](=O)[O-])c1`, the GI50 was 1.73 µM and the TGI came out at 3.3 µM.
With `CN1C(=O)N(C)C2C1NN=c1s/c(=C\c3ccc(C(F)(F)F)cc3)c(=O)n12` (stereo not given), the GI50 was 0.705 µM and the concentration for total growth inhibition (TGI) was more than 100 µM.
The corresponding values for `N#Cc1c(N2CCOCC2)nc(=S)[nH]c1-c1ccco1` are 10.4 µM and more than 100 µM.
In the case of `C[C@@H]1CN(Cc2ccc(F)cc2)[C@@H](C)CN1C(=O)c1cc2c(C(=O)C(=O)N(C)C)cn(C)c2cc1Cl`, the GI50 is 17.3 µM and the TGI is 37.4 µM.
For `COc1ccccc1-c1cc(=O)c2cc(C)cnc2[nH]1`, the TGI was more than 100 µM.
Turning to `O=[N+]([O-])c1ccc(C=Cc2ccccc2)cc1.[C-]#[O+].[C-]#[O+].[C-]#[O+].[Cr]`, the GI50 was 13.7 µM and the total growth inhibition concentration (TGI) is more than 100 µM.
In the case of `OCC1OC(n2cnc3c(N/N=C\c4ccccn4)ncnc32)C(O)C1O` (stereo not given), the GI50 is 0.434 µM and the concentration for total growth inhibition (TGI) is more than 100 µM.
In the case of `NNC(=O)CS(=O)(=O)Nc1ncccn1`, the TGI is more than 100 µM.
Take `COc1cc2c(cc1OCCCn1c(-c3ccccn3)nc3ccccc31)N=C[C@@H]1CCCN1C2=O`: the GI50 is 1.9 µM and the TGI was found to be 4.1 µM.
As to `c1cnn2ncc(-c3ccnc(NCCCN4CCOCC4)n3)c2c1`, the GI50 is 6.85 µM and the TGI is more than 21.4 µM.
As for `O=C(Nc1ccc(OCc2nnc(-c3ccc(Cl)cc3)o2)c(F)c1)Nc1ccc(Cl)c(C(F)(F)F)c1`, the GI50 was 1.71 µM and the concentration for total growth inhibition (TGI) turned out to be 4.96 µM.

A further assay has as its system MALME-3M melanoma. As to the kind of experiment: DTP human tumour cell line panel, 48 h.
In the case of `CC1=C2[C@@H](CC1)[C@]1(C)O[C@@](c3ccccc3)(C[C@H]1OC(=O)CO)[C@H]2OC(=O)/C=C/c1ccccc1`, the GI50 was 20.1 µM and the TGI is 42.8 µM.
Turning to `CCCN(CCS(C)(=O)=O)Cc1ccc(-c2ccc3ncnc(Nc4ccc(OCc5cccc(F)c5)c(Cl)c4)c3c2)o1`, the GI50 was more than 25 µM and the TGI was more than 25 µM.
Consider `CCc1ccc2c(c1)N(CCO)C1=C(C(=O)OC1)C2c1cccc(Br)c1` (stereo not given), for which the GI50 is 2.58 µM and the TGI was 25.6 µM.
Consider `CO/N=C(\COc1ccc2c(c1)[nH]c1ccccc12)c1ccc(F)cc1`, for which the GI50 is 22.8 µM and the TGI was more than 100 µM.
As to `COc1ccc(-c2nc(Nc3cc(C)[nH]n3)c3ccccc3n2)cc1`, the GI50 is 28.5 µM and the TGI was more than 100 µM.
Turning to `O=c1[nH]c(=O)n(C2CC(O)C(COP(=O)(OCc3ccc([N+](=O)[O-])o3)N(CCCCCl)CC(O)CO)O2)cc1F` (stereo not given), the 50% growth inhibitory concentration (GI50) is 0.207 µM and the total growth inhibition concentration (TGI) was more than 29.9 µM.
The compound `O=C1OC(=O)C(=C\c2ccc3c(c2)OCO3)/C1=C/c1ccc2c(c1)OCO2` displayed a TGI of more than 100 µM.
Turning to `CC(C)NCCCn1c(Sc2cc3c(cc2I)OCO3)nc2c(N)ncnc21`, the GI50 is 0.124 µM and the concentration for total growth inhibition (TGI) was 2.12 µM.
On the same counts, the results for `O=C(/C=C\c1cccc([N+](=O)[O-])c1)/C=C/c1cccc([N+](=O)[O-])c1` are 37.9 µM and more than 100 µM.
On to `CN1C(=O)N(C)C2C1NN=c1s/c(=C\c3ccc(C(F)(F)F)cc3)c(=O)n12` (stereo not given), for which the GI50 is 8.33 µM and the TGI was more than 100 µM.
`N#Cc1c(N2CCOCC2)nc(=S)[nH]c1-c1ccco1`: the GI50 is 2.18 µM and the TGI is 8.18 µM.
The corresponding values for `C[C@@H]1CN(Cc2ccc(F)cc2)[C@@H](C)CN1C(=O)c1cc2c(C(=O)C(=O)N(C)C)cn(C)c2cc1Cl` are 17.2 µM and 37.7 µM.
`COc1ccccc1-c1cc(=O)c2cc(C)cnc2[nH]1`: the TGI is more than 100 µM.
For `O=[N+]([O-])c1ccc(C=Cc2ccccc2)cc1.[C-]#[O+].[C-]#[O+].[C-]#[O+].[Cr]`, the GI50 was more than 100 µM and the concentration for total growth inhibition (TGI) was more than 100 µM.
In the case of `OCC1OC(n2cnc3c(N/N=C\c4ccccn4)ncnc32)C(O)C1O` (stereo not given), the GI50 was 0.404 µM and the TGI is 6.19 µM.
For the compound `NNC(=O)CS(=O)(=O)Nc1ncccn1`, the total growth inhibition concentration (TGI) was more than 100 µM.
For the compound `COc1cc2c(cc1OCCCn1c(-c3ccccn3)nc3ccccc31)N=C[C@@H]1CCCN1C2=O`, the GI50 was 5.32 µM and the TGI worked out at 11 µM.
For `c1cnn2ncc(-c3ccnc(NCCCN4CCOCC4)n3)c2c1`, the GI50 is 7.63 µM and the total growth inhibition concentration (TGI) amounted to 24.5 µM.
On the same counts, the results for `O=C(Nc1ccc(OCc2nnc(-c3ccc(Cl)cc3)o2)c(F)c1)Nc1ccc(Cl)c(C(F)(F)F)c1` are 2.4 µM and 6.33 µM.
